# Experimental data: patent publication US20080081075A1, “Multifunctional mixed micelle of graft and block copolymers and preparation thereof” (National Tsing Hua University, priority 2006, published 2008)
# What was measured:
# HeLa cells = experiment: Cytotoxicity evaluation, MTT assay; assay type: cell-based; conditions: 48 h
# Method: The cytotoxicity of each sample was determined by measuring the inhibition of cell growth using a tetrazolium dye (MTT) assay. […] HeLa cells (5×10^3 cell/mL) harvested in a logarithmic growth phase were seeded on 96 wells in Dulbecco's modified Eagle's medium (DMEM) with 10% fetal bovine serum (FBS) in a humidified atmosphere of 5% CO2 at 37° C. After the HeLa cells had been incubated in a logarithmic growth phase, samples with various concentrations of Dox were added for 48 h of co-culturing. At the end of the experiment, the MTT assay was conducted and the percentage of cell viability was calculated. Additionally, material cytotoxicities were measured using HeLa cells (5×10^3 cell/mL). The experimental process was identical to that described above.
# HeLa cells (5×10^3 cell/ml) were used to study the cytotoxicity of free Dox and Dox-loaded mixed micelle by measuring the inhibition of cell growth using a tetrazolium dye (MTT) assay.
# The Dox-loaded multifunctional micelles and free Dox were tested for in vitro cytotoxicity using a tetrazolium dye (MTT) method. The MTT-based cytotoxic activities of the Dox-loaded multifunctional micelles and free DOX were compared after 24 h and 72 h incubation with HeLa cells.
# [1] = system: HepG2 (human hepatocellular carcinoma) cells; experiment: Internalization evaluation by confocal laser scanning microscopy with LysoTracker; assay type: cell-based; conditions: Dox ca. 10 μg/mL
# Method: Internalization Evaluation. Accumulated Dox in HepG2 cells was localized using a Carl Zeiss LSM5 PASCAL confocal laser scanning microscope (CLSM). The […] cells were seeded on coverslides for 24 h and then treated with free Dox or Dox-loaded mixed micelles. Dox-loaded mixed micelles were washed with PBS twice to remove untrapped Dox before use. The concentration of Dox was ca. 10 μg/mL. After an interval, the cells were washed twice with PBS; then, the LysoTracker was added in a culture medium without FBS. After 30 min of incubation, the cells were washed with PBS and mounted on a slide with 4 wt % paraformaldehyde for CLSM observation. Fluorescence observation was carried out with a confocal microscope at 488 nm for excitation and an LP (long-pass) filter of 590 nm for Dox detection. […]
# Confocal laser scanning microscopy (CLSM) was used to observe the intracellular drug release of mixed micelles. Confocal images were taken to observe the time-dependent fluorescence intensity of LysoTracker and Dox after mixed micelles were incubated with HepG2 (human hepatocellular carcinoma) cells. The red fluorescence from Dox and the green fluorescence from LysoTracker were detected in the intracellular compartment. […] Fluorescence from LysoTracker occurred in both the nucleus and cytoplasm because these are acidified by doxorubicin hydrochloride. […]
structure (smiles),measurement,setting,value
"COc1cccc2c1C(=O)c1c(O)c3c(c(O)c1C2=O)C[C@@](O)(C(=O)CO)C[C@@H]3O[C@H]1C[C@H](N)[C@H](O)[C@H](C)O1 [free Dox, doxorubicin]",activity compared with Dox-loaded mixed micelles and Dox-loaded Graft I micelles,HeLa cells,more potent activity
same,localization of Dox fluorescence,[1]; 1 h incubation,concentrated in the nucleus
same,localization of Dox fluorescence,[1]; 8 h incubation,concentrated in the nucleus
